According to patent US8859559B2, “Substituted pyrazines and their use in the treatment of disease” (Boehringer Ingelheim International GmbH, priority 2011, dated 2014):

Molecular target: T1, ENaC (Epithelial Sodium Channel) (Mus musculus, UniProt Q61180+Q9WU38+Q9WU39)
T1 construct: Mouse kidney M-1 cells were cultivated in DMEM; endogenous in cells; host or cells: Mouse kidney M-1 cells (dexamethasone-treated, on transwell filters)
T1 sequence (Q61180 1-699): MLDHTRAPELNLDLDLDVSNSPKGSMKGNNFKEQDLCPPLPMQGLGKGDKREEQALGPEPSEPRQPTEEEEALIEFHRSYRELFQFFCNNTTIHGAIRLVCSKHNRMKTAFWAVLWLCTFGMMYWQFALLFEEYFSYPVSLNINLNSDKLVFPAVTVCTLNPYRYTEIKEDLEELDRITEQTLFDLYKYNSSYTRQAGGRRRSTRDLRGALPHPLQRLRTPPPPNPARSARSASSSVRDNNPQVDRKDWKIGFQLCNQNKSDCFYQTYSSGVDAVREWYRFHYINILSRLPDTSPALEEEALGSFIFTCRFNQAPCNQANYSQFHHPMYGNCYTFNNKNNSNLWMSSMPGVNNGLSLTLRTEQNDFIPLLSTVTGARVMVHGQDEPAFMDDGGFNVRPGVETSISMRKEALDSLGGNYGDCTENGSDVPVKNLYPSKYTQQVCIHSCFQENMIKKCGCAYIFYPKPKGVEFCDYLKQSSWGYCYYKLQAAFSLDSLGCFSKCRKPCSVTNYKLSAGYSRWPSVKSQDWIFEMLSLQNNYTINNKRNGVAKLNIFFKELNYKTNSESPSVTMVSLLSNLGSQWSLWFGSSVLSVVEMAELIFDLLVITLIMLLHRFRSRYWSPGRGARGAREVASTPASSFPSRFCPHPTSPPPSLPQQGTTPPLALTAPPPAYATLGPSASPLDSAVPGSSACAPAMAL
T1 sequence (Q9WU38 1-638): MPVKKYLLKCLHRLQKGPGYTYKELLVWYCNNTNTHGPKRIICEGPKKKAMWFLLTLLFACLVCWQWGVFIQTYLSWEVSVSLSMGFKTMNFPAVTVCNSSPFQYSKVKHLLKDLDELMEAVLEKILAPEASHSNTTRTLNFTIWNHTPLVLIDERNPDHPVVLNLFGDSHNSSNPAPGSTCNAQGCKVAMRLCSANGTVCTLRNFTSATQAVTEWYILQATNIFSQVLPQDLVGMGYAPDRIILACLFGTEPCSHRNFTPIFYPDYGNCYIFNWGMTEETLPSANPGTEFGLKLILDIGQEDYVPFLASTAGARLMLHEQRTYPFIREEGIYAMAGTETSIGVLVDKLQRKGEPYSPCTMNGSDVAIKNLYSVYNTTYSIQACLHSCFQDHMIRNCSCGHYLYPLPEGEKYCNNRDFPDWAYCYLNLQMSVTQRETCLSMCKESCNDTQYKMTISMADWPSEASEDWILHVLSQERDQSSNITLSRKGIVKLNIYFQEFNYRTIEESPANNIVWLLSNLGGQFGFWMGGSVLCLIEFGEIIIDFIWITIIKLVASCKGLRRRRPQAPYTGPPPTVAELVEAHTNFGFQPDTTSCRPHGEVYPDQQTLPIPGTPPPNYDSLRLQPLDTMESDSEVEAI
T1 sequence (Q9WU39 1-655): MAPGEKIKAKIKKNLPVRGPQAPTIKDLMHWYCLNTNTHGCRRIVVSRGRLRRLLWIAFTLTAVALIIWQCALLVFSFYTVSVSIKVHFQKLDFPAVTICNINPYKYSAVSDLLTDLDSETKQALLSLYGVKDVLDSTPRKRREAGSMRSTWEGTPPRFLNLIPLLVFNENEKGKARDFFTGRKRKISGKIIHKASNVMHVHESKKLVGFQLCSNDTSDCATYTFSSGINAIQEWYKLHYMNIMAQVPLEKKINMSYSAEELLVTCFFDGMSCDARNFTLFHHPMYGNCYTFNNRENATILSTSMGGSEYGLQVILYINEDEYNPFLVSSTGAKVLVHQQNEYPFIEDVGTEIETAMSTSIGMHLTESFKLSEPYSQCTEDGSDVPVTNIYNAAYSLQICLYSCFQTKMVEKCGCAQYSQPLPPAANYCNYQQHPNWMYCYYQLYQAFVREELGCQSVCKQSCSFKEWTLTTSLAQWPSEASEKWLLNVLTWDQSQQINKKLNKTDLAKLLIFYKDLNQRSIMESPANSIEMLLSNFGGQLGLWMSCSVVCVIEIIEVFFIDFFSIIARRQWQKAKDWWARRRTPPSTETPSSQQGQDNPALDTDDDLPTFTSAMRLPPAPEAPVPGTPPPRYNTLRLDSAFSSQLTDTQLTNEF
Test: Ussing chamber: inhibition of amiloride sensitive short circuit current (I_sc) in M-1 cells
Format: cell-based
Conditions: mouse kidney M-1 cells
Method: Mouse kidney M-1 cells were cultivated in DMEM containing 5% FCS and 5 μM dexamethasone for 10 to 12 days on polyester transwell filters. Filters were inserted into a teflon-coated well-plate which fit into the in-house ussing chamber system. Prior to measurement the medium of M-1 cells was replaced with Caco-2 transport buffer (Invitrogen, Germany). During measurements, the Ussing chamber temperature was kept at 37° C. Short circuit currents (I_sc) were measured in the voltage-clamp mode using an in-house built amplifier (Boehringer Ingelheim, Biberach) with the software package Lab View for data acquisition and analysis. The transepithelial electrical resistance (TEER) was determined by the application of voltage steps of ±5 mV every 5 sec. Compounds were administered at a final concentration of 3 μM or at increasing concentrations (1-3-10 μM) to the apical solution. At the end of each experiment the amiloride sensitive I_SC was measured by adding 3 μM amiloride to the apical compartment. Results are expressed as inhibition in percent of the amiloride effect or as IC50. With the example compounds given above, the following IC50 values were determined in the Ussing Chamber assay: […]

N/C(=N\C(=O)c1nc(Cl)c(N)nc1N)NC1CCN(Cc2ccc(CO)cc2)CC1 [Example 1.2]
IC50: 0.01 µM

NC(=NC(=O)c1nc(Cl)c(N)nc1N)NC1CCN(Cc2ccc(C(=O)O)cc2Cl)CC1 [Example 8.11]
IC50: 0.05 µM

NC(=NC(=O)c1nc(Cl)c(N)nc1N)NC1CCCN(Cc2ccccc2)CC1 (stereo not drawn) [Example 1.22]
IC50: 0.014 µM

COC(=O)c1ccccc1CN1CCC(NC(N)=NC(=O)c2nc(Cl)c(N)nc2N)CC1 [Example 1.43]
IC50: 0.015 µM

COC(=O)COc1ccc(CN2CC[C@@H](NC(N)=NC(=O)c3nc(Cl)c(N)nc3N)C2)cc1 [Example 1.46]
IC50: 0.073 µM

NC(=NC(=O)c1nc(Cl)c(N)nc1N)NC1CCN(Cc2ccc(-c3cn(CCOCCOC(c4ccccc4)(c4ccccc4)c4ccccc4)nn3)cc2)CC1 [Example 3.30]
IC50: 0.001 µM

COc1cc(C(=O)O)ccc1CN1CCC(NC(N)=NC(=O)c2nc(Cl)c(N)nc2N)CC1 [Example 8.9]
IC50: 0.074 µM

COC(=O)COc1ccc(CN2CCC(N/C(N)=N/C(=O)c3nc(Br)c(N)nc3N)CC2)cc1 [Example 1.68]
IC50: 0.011 µM

NC(=NC(=O)c1nc(Cl)c(N)nc1N)NC1CCN(Cc2ccc(-n3cc(COC[B-](F)(F)F)nn3)cc2)CC1 [Example 3.14]
IC50: 0.006 µM

N/C(=N\C(=O)c1nc(Cl)c(N)nc1N)NC1CCN(Cc2ccc(O)cc2)CC1 [Example 1.31]
IC50: 0.007 µM

[N-]=[N+]=NCCOCCOCCOCCN(CCOCCOCCO)C(=O)c1ccc(=O)n(Cc2ccc(CN3CCC(NC(N)=NC(=O)c4nc(Cl)c(N)nc4N)CC3)cc2)c1 [Example 1.56]
IC50: 0.024 µM

NC(=NC(=O)c1nc(Cl)c(N)nc1N)N[C@@H]1CCCN(Cc2ccc(C(=O)O)cc2)C1 [Example 1.62]
IC50: 0.087 µM

N/C(=N\C(=O)c1nc(Cl)c(N)nc1N)NC1CCN(Cc2ccc(OCc3cn(CCOCCOCCOCCOCCOCCO)nn3)cc2)CC1 [Example 5.1]
IC50: 0.042 µM

C#Cc1ccc(CN2CCC(NC(N)=NC(=O)c3nc(Cl)c(N)nc3N)CC2)cc1 [Example 1.50]
IC50: 0.005 µM

NC(=NC(=O)c1nc(Cl)c(N)nc1N)NC1CCN(Cc2ccc(S(=O)(=O)NCCO)cc2)CC1 [Example 1.63]
IC50: 0.006 µM

COCCOc1ccc(C(=O)NCCOCCOCCNC(=O)c2ccc(CN3CCC(NC(N)=NC(=O)c4nc(Cl)c(N)nc4N)CC3)cc2)cc1 [Example 1.49]
IC50: 0.006 µM

NC(=NC(=O)c1nc(Cl)c(N)nc1N)NC1CCN(Cc2ccc(C(=O)NCCS(=O)(=O)O)cc2)CC1 [Example 2.4]
IC50: 0.035 µM

COC(=O)c1ccc(=O)n(Cc2ccc(CN3CCC(NC(N)=NC(=O)c4nc(Cl)c(N)nc4N)CC3)cc2)c1 [Example 1.5]
IC50: 0.007 µM

NC(=NC(=O)c1nc(Cl)c(N)nc1N)NC1CCN(Cc2cccc(-c3cn(CCOCCOCCOCCOCCOCCOC(c4ccccc4)(c4ccccc4)c4ccccc4)nn3)c2)CC1 [Example 3.37]
IC50: 0.009 µM

CN(Cc1cn(-c2ccc(CN3CCC(NC(N)=NC(=O)c4nc(Cl)c(N)nc4N)CC3)cc2)nn1)C(=O)CCN [Example 4.2]
IC50: 0.004 µM

NC(=NC(=O)c1nc(Cl)c(N)nc1N)NC1CC2CCC(C1)N2Cc1ccccc1 (single isomer, unassigned) [Example 1.28]
IC50: 0.016 µM

COC(=O)c1ccc(CN2CCC(C)(NC(N)=NC(=O)c3nc(Cl)c(N)nc3N)CC2)cc1 [Example 1.17]
IC50: 0.066 µM

CC[N+](CC)(CC)Cc1ccc(CCn2cc(-c3cccc(CN4CCC(NC(N)=NC(=O)c5nc(Cl)c(N)nc5N)CC4)c3)nn2)cc1 [Example 3.38]
IC50: 0.001 µM

NC(=NC(=O)c1nc(Cl)c(N)nc1N)NC1CC2CCC(C1)N2Cc1ccccc1 (single isomer, unassigned) [Example 1.27]
IC50: 0.049 µM

NC(=NC(=O)c1nc(Cl)c(N)nc1N)NC1CCN(Cc2ccc(Cn3cc(C(=O)O)ccc3=O)cc2)CC1 [Example 8.12]
IC50: 0.039 µM

CCOP(=O)(Cc1ccc(CN2CCC(NC(N)=NC(=O)c3nc(Cl)c(N)nc3N)CC2)cc1)OCC [Example 1.8]
IC50: 0.01 µM

C[N+](C)(C)CCNC(=O)c1cccc(CN2CCC(NC(N)=NC(=O)c3nc(Cl)c(N)nc3N)CC2)c1 [Example 2.3]
IC50: 0.003 µM
